# From patent US12371454B2, “Cyclic peptide compound having Kras inhibitory action” (priority 2019, dated 2025)
# Starred links: 1 amine or outer side, 2 acyl side, 3 side chain; linkers in the order of their positions; H or OH if unused. Positions of bridges follow the written chain, without caps; N, C: chain ends. Non-standard residues stand in square brackets, D forms with d. Residues, ends and D or L forms follow the SMILES beside them. *: point of attachment. hPhe(3-Cl-4-CF3) = N[C@@H](CCc1ccc(C(F)(F)F)c(Cl)c1)C(=O)O; hPhe(3-F,4-CF3) = N[C@@H](CCc1ccc(C(F)(F)F)c(F)c1)C(=O)O; Pro(cis-4-Ph) = O=C(O)[C@@H]1C[C@H](c2ccccc2)CN1; 3Oxa8azabicyclo(3.2.1)octane = C1CC2COCC1N2*; NMePhe(4-Cl) = CN[C@@H](Cc1ccc(Cl)cc1)C(=O)O; NMePhe(4-Me) = CN[C@@H](Cc1ccc(C)cc1)C(=O)O; NMePhe(4-I) = CN[C@@H](Cc1ccc(I)cc1)C(=O)O; hPhe(4-Cl) = N[C@@H](CCc1ccc(Cl)cc1)C(=O)O; NMedβ3hAla = C[C@H](CC(=O)[*:2])N(C)[*:1]; NMeAla(cPent) = CN[C@@H](CC1CCCC1)C(=O)O; NMeGly(cPent) = CN[C@H](C(=O)O)C1CCCC1; NMe3Pal = CN[C@@H](Cc1cccnc1)C(=O)O; NMeGly(cBu) = CN[C@H](C(=O)O)C1CCC1; NMeCha = CN[C@@H](CC1CCCCC1)C(=O)O; NMeChg = CN[C@H](C(=O)O)C1CCCCC1; NMeI = CC[C@H](C)[C@H](NC)C(=O)O; NMeT = CN[C@H](C(=O)O)[C@@H](C)O; NMeD = CN[C@@H](CC(=O)O)C(=O)O; NMeHpra = C#CCC[C@H](NC)C(=O)O; NMeL = CN[C@@H](CC(C)C)C(=O)O; NEtAla = CCN[C@@H](C)C(=O)O; NMeNva = CCC[C@H](NC)C(=O)O; NMeV = CN[C@H](C(=O)O)C(C)C; d(β3hA) = C[C@@H](N)CC(=O)O; Azetidin(1-yl) = C1CN(*)C1; NMeS = CN[C@@H](CO)C(=O)O; NMeA = CN[C@@H](C)C(=O)O; Piperidide = C1CCN(*)CC1; Pyrrolidide = C1CCN(*)C1; Ac5c = NC1(C(=O)O)CCCC1; Aze = O=C(O)[C@@H]1CCN1; Sar = CNCC(=O)O; Propyl = CCC*
# Tested on: Human pancreatic cancer cell line AsPC-1
# Assay: Measurement of AsPC-1 cell growth inhibition (AsPC-1 CGI)
# Type: cell-based
# Conditions: 96 h
# Outline: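 AsPC-1 cells in 15% FBS RPMI-1640 were exposed to test compound for 96 hours at 37° C, with CellTiter-Glo as endpoint.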
row,Structure (SMILES),IC50 [nM]
1,"CC[C@H](C)[C@@H]1NC(=O)[C@H](CC(C)C)N(C)C(=O)C[C@@H](C)N(C)C(=O)[C@H]([C@@H](C)CC)N(C)C(=O)C2(CCCC2)NC(=O)[C@@H]2CCCN2C(=O)[C@H](CCc2ccc(C(F)(F)F)c(F)c2)NC(=O)CN(C)C(=O)[C@H](C2CCCC2)N(C)C(=O)[C@@H]2CCN2C(=O)[C@H](C)N(C)C1=O [Compound 909] (cyclo([Ac5c][NMeI][NMedβ3hAla][NMeL]I[NMeA][Aze][NMeGly(cPent)][Sar][hPhe(3-F,4-CF3)]P))",50 to 100
2,CC[C@H](C)[C@@H]1NC(=O)[C@H](CC(C)C)N(C)C(=O)C[C@@H](C(=O)N2CCCCC2)N(C)C(=O)[C@H](C(C)C)N(C)C(=O)C2(CCCC2)NC(=O)[C@@H]2CCCN2C(=O)[C@H](CCc2ccc(Cl)cc2)NC(=O)CN(C)C(=O)[C@H](CC2CCCCC2)N(C)C(=O)[C@@H]2CCN2C(=O)CN(C)C1=O [Compound 916] ([NMeL]I[Sar][Aze][NMeCha][Sar][hPhe(4-Cl)]P[Ac5c][NMeV][NMeD]-Piperidide; lactam N-11),100 to 500
3,"CC[C@H](C)[C@@H]1NC(=O)[C@H](CC(C)C)N(C)C(=O)C[C@@H](C(=O)N2CCCC2)N(C)C(=O)[C@H](C2CCCC2)N(C)C(=O)C2(CCCC2)NC(=O)[C@@H]2CCCN2C(=O)[C@H](CCc2ccc(C(F)(F)F)c(F)c2)NC(=O)CN(C)C(=O)[C@H](C2CCCC2)N(C)C(=O)[C@@H]2CCN2C(=O)[C@H](C)N(C)C1=O [Compound 918] ([NMeL]I[NMeA][Aze][NMeGly(cPent)][Sar][hPhe(3-F,4-CF3)]P[Ac5c][NMeGly(cPent)][NMeD]-Pyrrolidide; lactam N-11)",20 to 50
4,CC[C@H](C)[C@@H]1NC(=O)[C@H](CC2CCCC2)N(C)C(=O)C[C@@H](C(=O)N2CCC2)N(C)C(=O)[C@H](C2CCCC2)N(C)C(=O)C2(CCCC2)NC(=O)[C@@H]2CCCN2C(=O)[C@H](CCc2ccc(C(F)(F)F)c(Cl)c2)NC(=O)CN(C)C(=O)[C@H](CC2CCCCC2)N(C)C(=O)[C@@H]2CCN2C(=O)[C@H](C)NC1=O [Compound 921] ([NMeAla(cPent)]IA[Aze][NMeCha][Sar][hPhe(3-Cl-4-CF3)]P[Ac5c][NMeGly(cPent)][NMeD]-{Azetidin(1-yl)}; lactam N-11),20 to 50
5,CC[C@H](C)[C@@H]1NC(=O)[C@H](CC(C)C)N(C)C(=O)C[C@@H](C(=O)N2CCCCC2)N(C)C(=O)[C@H](C(C)C)N(C)C(=O)C2(CCCC2)NC(=O)[C@@H]2CCCN2C(=O)[C@H](CCc2ccc(C(F)(F)F)c(Cl)c2)NC(=O)CN(C)C(=O)[C@H]([C@@H](C)OC)N(C)C(=O)[C@@H]2CCN2C(=O)[C@H](C)N(C)C1=O [Compound 929] ([NMeL]I[NMeA][Aze][NMeT](Me)[Sar][hPhe(3-Cl-4-CF3)]P[Ac5c][NMeV][NMeD]-Piperidide; lactam N-11),100 to 500
6,CC[C@H](C)[C@@H]1NC(=O)[C@H](C2CCC2)N(C)C(=O)C[C@@H](C(=O)N2CCCCC2)N(C)C(=O)[C@H]([C@@H](C)CC)N(C)C(=O)C2(CCCC2)NC(=O)[C@@H]2CCCN2C(=O)[C@H](CCc2ccc(C(F)(F)F)c(Cl)c2)NC(=O)CN(C)C(=O)[C@H](CC2CCCCC2)N(C)C(=O)[C@@H]2CCN2C(=O)[C@H](C)N(C)C1=O [Compound 959] ([NMeGly(cBu)]I[NMeA][Aze][NMeCha][Sar][hPhe(3-Cl-4-CF3)]P[Ac5c][NMeI][NMeD]-Piperidide; lactam N-11),20 to 50
7,CC[C@H](C)[C@@H]1NC(=O)[C@H](CC(C)C)N(C)C(=O)C[C@@H](C(=O)N2CCCCC2)N(C)C(=O)[C@H](C2CCCCC2)N(C)C(=O)C2(CCCC2)NC(=O)[C@@H]2C[C@H](c3ccccc3)CN2C(=O)[C@H](CCc2ccc(C(F)(F)F)c(Cl)c2)NC(=O)CN(C)C(=O)[C@H](CC2CCCCC2)N(C)C(=O)[C@@H]2CCN2C(=O)CN(C)C1=O [Compound 960] ([NMeL]I[Sar][Aze][NMeCha][Sar][hPhe(3-Cl-4-CF3)][Pro(cis-4-Ph)][Ac5c][NMeChg][NMeD]-Piperidide; lactam N-11),100 to 500
8,C#CCC[C@H]1C(=O)N[C@@H]([C@@H](C)CC)C(=O)N(C)[C@@H](C)C(=O)N2CC[C@H]2C(=O)N(C)[C@@H](Cc2ccc(I)cc2)C(=O)N(C)CC(=O)N[C@@H](CCc2ccc(C(F)(F)F)c(Cl)c2)C(=O)N2CCC[C@H]2C(=O)NC2(CCCC2)C(=O)N(C)[C@@H](C2CCCCC2)C(=O)N(C)[C@H](C)CC(=O)N1C [Compound 961] (cyclo([Ac5c][NMeChg][NMedβ3hAla][NMeHpra]I[NMeA][Aze][NMePhe(4-I)][Sar][hPhe(3-Cl-4-CF3)]P)),100 to 500
9,C#CCC[C@H]1C(=O)N[C@@H]([C@@H](C)CC)C(=O)N(C)[C@@H](C)C(=O)N2CC[C@H]2C(=O)N(C)[C@@H](Cc2ccc(I)cc2)C(=O)N(C)CC(=O)N[C@@H](CCc2ccc(C(F)(F)F)c(Cl)c2)C(=O)N2CCC[C@H]2C(=O)NC2(CCCC2)C(=O)N(C)[C@@H](C2CCCCC2)C(=O)N[C@H](C)CC(=O)N1C [Compound 971] (cyclo([Ac5c][NMeChg][d(β3hA)][NMeHpra]I[NMeA][Aze][NMePhe(4-I)][Sar][hPhe(3-Cl-4-CF3)]P)),100 to 500
10,CCC[C@H]1C(=O)N(C)[C@H](C(=O)N2CCCCC2)CC(=O)N(C)[C@@H](CC(C)C)C(=O)N[C@@H]([C@@H](C)CC)C(=O)N(C)[C@@H](C)C(=O)N2CC[C@H]2C(=O)N(C)[C@@H](CC2CCCCC2)C(=O)N(C)CC(=O)N[C@@H](CCc2ccc(C(F)(F)F)c(Cl)c2)C(=O)N2CCC[C@H]2C(=O)NC2(CCCC2)C(=O)N1C [Compound 995] ([NMeL]I[NMeA][Aze][NMeCha][Sar][hPhe(3-Cl-4-CF3)]P[Ac5c][NMeNva][NMeD]-Piperidide; lactam N-11),100 to 500
11,CC[C@H](C)[C@@H]1NC(=O)[C@H](CC(C)C)N(C)C(=O)C[C@@H](C(=O)N2C3CCC2COC3)N(C)C(=O)[C@H]([C@@H](C)CC)N(C)C(=O)C2(CCCC2)NC(=O)[C@@H]2CCCN2C(=O)[C@H](CCc2ccc(C(F)(F)F)c(Cl)c2)NC(=O)CN(C)C(=O)[C@H](C2CCCC2)N(C)C(=O)[C@@H]2CCN2C(=O)[C@H](C)N(C)C1=O [Compound 1002] ([NMeL]I[NMeA][Aze][NMeGly(cPent)][Sar][hPhe(3-Cl-4-CF3)]P[Ac5c][NMeI][NMeD]-{3Oxa8azabicyclo(3.2.1)octane}; lactam N-11),20 to 50
12,CCC[C@H]1C(=O)NC2(CCCC2)C(=O)N(C)[C@@H](C2CCCCC2)C(=O)N(C)[C@H](C(=O)N2CCCCC2)CC(=O)N(C)[C@@H](CC(C)C)C(=O)N[C@@H]([C@@H](C)CC)C(=O)N(C)CC(=O)N(C)CC(=O)N(C)[C@@H](CC2CCCCC2)C(=O)N(C)CC(=O)N[C@@H](CCc2ccc(C(F)(F)F)c(Cl)c2)C(=O)N1C [Compound 1005] ([NMeL]I[Sar][Sar][NMeCha][Sar][hPhe(3-Cl-4-CF3)][NMeNva][Ac5c][NMeChg][NMeD]-Piperidide; lactam N-11),100 to 500
13,"CC[C@H](C)[C@@H]1NC(=O)[C@H](CC(C)C)N(C)C(=O)C[C@@H](C(=O)N2CCCCC2)N(C)C(=O)[C@H](C2CCCC2)N(C)C(=O)C2(CCCC2)NC(=O)[C@@H]2CCCN2C(=O)[C@H](CCc2ccc(C(F)(F)F)c(F)c2)NC(=O)CN(C)C(=O)[C@H](Cc2ccc(C)cc2)N(C)C(=O)[C@@H]2CCN2C(=O)[C@H](C)N(C)C1=O [Compound 1008] ([NMeL]I[NMeA][Aze][NMePhe(4-Me)][Sar][hPhe(3-F,4-CF3)]P[Ac5c][NMeGly(cPent)][NMeD]-Piperidide; lactam N-11)",20 to 50
14,CC[C@H](C)[C@@H]1NC(=O)[C@H](C)N(C)C(=O)C[C@@H](C(=O)N2CCCCC2)N(C)C(=O)[C@H](C2CCCCC2)N(C)C(=O)C2(CCCC2)NC(=O)[C@H](Cc2cccnc2)N(C)C(=O)[C@H](CCc2ccc(C(F)(F)F)c(Cl)c2)NC(=O)CN(C)C(=O)[C@H](CC2CCCCC2)N(C)C(=O)CN(C)C(=O)CN(C)C1=O [Compound 1012] ([NMeA]I[Sar][Sar][NMeCha][Sar][hPhe(3-Cl-4-CF3)][NMe3Pal][Ac5c][NMeChg][NMeD]-Piperidide; lactam N-11),100 to 500
15,CC[C@H](C)[C@@H]1NC(=O)[C@H](C(C)C)N(C)C(=O)C[C@@H](C)NC(=O)[C@H](CC(C)C)N(C)C(=O)C2(CCCC2)NC(=O)[C@H](CC(C)C)N(C)C(=O)[C@H](CCc2ccc(C(F)(F)F)c(Cl)c2)NC(=O)CN(C)C(=O)[C@H](Cc2ccc(Cl)cc2)N(C)C(=O)CN(C)C(=O)CN(C)C1=O [Compound 1014] (cyclo([Ac5c][NMeL][d(β3hA)][NMeV]I[Sar][Sar][NMePhe(4-Cl)][Sar][hPhe(3-Cl-4-CF3)][NMeL])),100 to 500
16,CC[C@H](C)[C@@H]1NC(=O)[C@H](CC(C)C)N(C)C(=O)C[C@@H](C)NC(=O)[C@H](C(C)C)N(C)C(=O)C2(CCCC2)NC(=O)[C@@H]2CCCN2C(=O)[C@H](CCc2ccc(C(F)(F)F)c(Cl)c2)NC(=O)CN(C)C(=O)[C@H](Cc2ccc(Cl)cc2)N(C)C(=O)[C@@H]2CCN2C(=O)[C@H](C)N(C)C1=O [Compound 1018] (cyclo([Ac5c][NMeV][d(β3hA)][NMeL]I[NMeA][Aze][NMePhe(4-Cl)][Sar][hPhe(3-Cl-4-CF3)]P)),100 to 500
17,CC[C@H](C)[C@@H]1NC(=O)[C@H](CC(C)C)N(C)C(=O)C[C@@H](C)NC(=O)[C@H](C2CCCC2)N(C)C(=O)C2(CCCC2)NC(=O)[C@@H]2CCCN2C(=O)[C@H](CCc2ccc(C(F)(F)F)c(Cl)c2)NC(=O)CN(C)C(=O)[C@H](Cc2ccc(C)cc2)N(C)C(=O)[C@@H]2CCN2C(=O)[C@H](C)N(CC)C1=O [Compound 1023] (cyclo([Ac5c][NMeGly(cPent)][d(β3hA)][NMeL]I[NEtAla][Aze][NMePhe(4-Me)][Sar][hPhe(3-Cl-4-CF3)]P)),50 to 100
18,"CCCOC[C@H]1C(=O)N(C)CC(=O)N[C@@H](CCc2ccc(C(F)(F)F)c(F)c2)C(=O)N2CCC[C@H]2C(=O)NC2(CCCC2)C(=O)N(C)[C@@H](C2CCCC2)C(=O)N(C)[C@H](C(=O)N2CCCCC2)CC(=O)N(C)[C@@H](CC(C)C)C(=O)N[C@@H]([C@@H](C)CC)C(=O)N(C)[C@@H](C)C(=O)N2CC[C@H]2C(=O)N1C [Compound 1029] ([NMeL]I[NMeA][Aze][NMeS](Propyl)[Sar][hPhe(3-F,4-CF3)]P[Ac5c][NMeGly(cPent)][NMeD]-Piperidide; lactam N-11)",20 to 50
